# Values quoted from earlier work as cited in PubChem BioAssay AID1259409 (Chemical Carcinogenesis Research Information System (CCRIS), 2018).
# System: rodent chemically induced tumor inhibition, incidence and multiplicity
# Assay: CCRIS tumor inhibitor studies
structure (smiles),measurement,setting,value
O=c1cc(-c2ccccc2)oc2c1ccc1ccccc12,"tumour outcome (control, treated, inhibition, significance)","Carcinogen: 2-AMINO-1-METHYL-6-PHENYLIMIDAZO[4,5-B]PYRIDINE [105650-23-5], Dose [Inhibitor]: 1,000 PPM IN DIET FOR 4 WK BEGINNING WK PRIOR TO FIRST CARCINOGEN DOSE (STUDY DURATION: 25 WK), Route [Inhibitor]: ORAL, Species: RAT, Strain/Sex: SPRAGUE-DAWLEY/FEMALE, Target Tissue: Type of Lesion: MAMMARY GLAND: FIBROADENOMA OR DUCTAL CARCINOMA, Dose [Carcinogen]: 85 MG/KG BW 2/WK FOR 4 WK (STUDY DURATION: 25 WK), Promoter: NONE","63%, 36%, 42%, not significant"
same,"tumour outcome (control, treated, inhibition, significance)","Carcinogen: 6-HYDROXYMETHYLBENZO[A]PYRENE, 21247-98-3, Dose [Inhibitor]: 100 UG IN 0.2 ML ACETONE ONCE 5 MINUTES BEFORE CARCINOGEN TREATMENT (STUDY DURATION: 31 WK), Route [Inhibitor]: DERMAL, Species: MOUSE, Strain/Sex: CD-1/FEMALE, Target Tissue: Type of Lesion: SKIN: PAPILLOMA, Dose [Carcinogen]: 400 NMOL IN 0.2 ML ACETONE ONCE, Promoter: 12-O-TETRADECANOYLPHORBOL-13-ACETATE, 16561-29-8","57%, 60%, -5%, not calculated"
same,"tumour outcome (control, treated, inhibition, significance)","Carcinogen: 6-METHYLBENZO[A]PYRENE, 2381-39-7, Dose [Inhibitor]: 100 UG IN 0.2 ML ACETONE ONCE 5 MINUTES BEFORE CARCINOGEN TREATMENT (STUDY DURATION: 31 WK), Route [Inhibitor]: DERMAL, Species: MOUSE, Strain/Sex: CD-1/FEMALE, Target Tissue: Type of Lesion: SKIN: PAPILLOMA, Dose [Carcinogen]: 400 NMOL IN 0.2 ML ACETONE ONCE, Promoter: 12-O-TETRADECANOYLPHORBOL-13-ACETATE, 16561-29-8","73%, 40%, 44%, not calculated"
same,"tumour outcome (control, treated, inhibition, significance)","Carcinogen: 7,12-DIMETHYLBENZ[A]ANTHRACENE, 57-97-6, Dose [Inhibitor]: 0, 0.37 NMOL IN 0.2 ML ACETONE APPLIED 5 MIN PRIOR TO CARCINOGEN (STUDY DURATION: 21 WK), Route [Inhibitor]: DERMAL, Species: MOUSE, Strain/Sex: SENCAR/FEMALE, Target Tissue: Type of Lesion: SKIN: PAPILLOMA, Dose [Carcinogen]: 40 NMOL IN 0.2 ML ACETONE ONCE, Promoter: 12-O-TETRADECANOYLPHORBOL-13-ACETATE, 16561-29-8","100%, 100%, 0%"
same,"tumour outcome (control, treated, inhibition, significance)","Carcinogen: 7,12-DIMETHYLBENZ[A]ANTHRACENE, 57-97-6, Dose [Inhibitor]: 0, 3.7 NMOL IN 0.2 ML ACETONE APPLIED 5 MIN PRIOR TO CARCINOGEN (STUDY DURATION: 21 WK), Route [Inhibitor]: DERMAL, Species: MOUSE, Strain/Sex: SENCAR/FEMALE, Target Tissue: Type of Lesion: SKIN: PAPILLOMA, Dose [Carcinogen]: 40 NMOL IN 0.2 ML ACETONE ONCE, Promoter: 12-O-TETRADECANOYLPHORBOL-13-ACETATE, 16561-29-8","100%, 100%, 0%"
same,"tumour outcome (control, treated, inhibition, significance)","Carcinogen: 7,12-DIMETHYLBENZ[A]ANTHRACENE, 57-97-6, Dose [Inhibitor]: 0, 37 NMOL IN 0.2 ML ACETONE APPLIED 5 MIN PRIOR TO CARCINOGEN (STUDY DURATION: 21 WK), Route [Inhibitor]: DERMAL, Species: MOUSE, Strain/Sex: SENCAR/FEMALE, Target Tissue: Type of Lesion: SKIN: PAPILLOMA, Dose [Carcinogen]: 10 NMOL IN 0.2 ML ACETONE ONCE, Promoter: 12-O-TETRADECANOYLPHORBOL-13-ACETATE, 16561-29-8","79%, 60%, 24%, not calculated"
same,"tumour outcome (control, treated, inhibition, significance)","Carcinogen: 7,12-DIMETHYLBENZ[A]ANTHRACENE, 57-97-6, Dose [Inhibitor]: 0, 37 NMOL IN 0.2 ML ACETONE APPLIED 5 MIN PRIOR TO CARCINOGEN (STUDY DURATION: 21 WK), Route [Inhibitor]: DERMAL, Species: MOUSE, Strain/Sex: SENCAR/FEMALE, Target Tissue: Type of Lesion: SKIN: PAPILLOMA, Dose [Carcinogen]: 40 NMOL IN 0.2 ML ACETONE ONCE, Promoter: 12-O-TETRADECANOYLPHORBOL-13-ACETATE, 16561-29-8","100%, 87%, 13%, not calculated"
same,"tumour outcome (control, treated, inhibition, significance)","Carcinogen: 7,12-DIMETHYLBENZ[A]ANTHRACENE, 57-97-6, Dose [Inhibitor]: 0, 370 NMOL IN 0.2 ML ACETONE APPLIED 5 MIN PRIOR TO CARCINOGEN (STUDY DURATION: 21 WK), Route [Inhibitor]: DERMAL, Species: MOUSE, Strain/Sex: SENCAR/FEMALE, Target Tissue: Type of Lesion: SKIN: PAPILLOMA, Dose [Carcinogen]: 10 NMOL IN 0.2 ML ACETONE ONCE, Promoter: 12-O-TETRADECANOYLPHORBOL-13-ACETATE, 16561-29-8","79%, 46%, 42%, not calculated"
same,"tumour outcome (control, treated, inhibition, significance)","Carcinogen: 7,12-DIMETHYLBENZ[A]ANTHRACENE, 57-97-6, Dose [Inhibitor]: 0, 370 NMOL IN 0.2 ML ACETONE APPLIED 5 MIN PRIOR TO CARCINOGEN (STUDY DURATION: 21 WK), Route [Inhibitor]: DERMAL, Species: MOUSE, Strain/Sex: SENCAR/FEMALE, Target Tissue: Type of Lesion: SKIN: PAPILLOMA, Dose [Carcinogen]: 40 NMOL IN 0.2 ML ACETONE ONCE, Promoter: 12-O-TETRADECANOYLPHORBOL-13-ACETATE, 16561-29-8","100%, 97%, 3%, not calculated"
same,"tumour outcome (control, treated, inhibition, significance)","Carcinogen: 7,12-DIMETHYLBENZ[A]ANTHRACENE, 57-97-6, Dose [Inhibitor]: 25 UG/MOUSE APPLIED 6 HR BEFORE, 5 MIN BEFORE, AND 6 HR AFTER DMBA (STUDY DURATION: 28 WK), Route [Inhibitor]: DERMAL, Species: MOUSE, Strain/Sex: CD-1/FEMALE, Target Tissue: Type of Lesion: SKIN: PAPILLOMA, Dose [Carcinogen]: 2.56 UG APPLIED ONCE 5 MIN AFTER INHIBITOR, Promoter: 12-O-TETRADECANOYLPHORBOL-13-ACETATE, 16561-29-8","82%, 22%, 73%, not calculated"
same,"tumour outcome (control, treated, inhibition, significance)","Carcinogen: 7,12-DIMETHYLBENZ[A]ANTHRACENE, 57-97-6, Dose [Inhibitor]: 25 UG/MOUSE APPLIED ONCE 5 MIN BEFORE DMBA (STUDY DURATION: 28 WK), Route [Inhibitor]: DERMAL, Species: MOUSE, Strain/Sex: CD-1/FEMALE, Target Tissue: Type of Lesion: SKIN: PAPILLOMA, Dose [Carcinogen]: 2.56 UG APPLIED ONCE 5 MIN AFTER INHIBITOR, Promoter: 12-O-TETRADECANOYLPHORBOL-13-ACETATE, 16561-29-8","82%, 48%, 41%, not calculated"
same,"tumour outcome (control, treated, inhibition, significance)","Carcinogen: 7,12-DIMETHYLBENZ[A]ANTHRACENE, 57-97-6, Dose [Inhibitor]: 100 UG IN 0.2 ML ACETONE ONCE 5 MIN BEFORE CARCINOGEN TREATMENT (STUDY DURATION: 31 WK), Route [Inhibitor]: DERMAL, Species: MOUSE, Strain/Sex: CD-1/FEMALE, Target Tissue: Type of Lesion: SKIN: PAPILLOMA, Dose [Carcinogen]: 10 NMOL IN 0.2 ML ACETONE ONCE, Promoter: 12-O-TETRADECANOYLPHORBOL-13-ACETATE, 16561-29-8","90%, 38%, 58%, not calculated"
